Assay results published in patent US4415565A, “Silver metachloridine in treatment of infections” (The United States of America as represented by the …, priority 1981, dated 1983).
Values after ≈ are worked out from the molar mass of the structure shown. Read-outs that look alike come from different tables or passages of the source.

Columns and labels:
[1] = system: VEE; experiment: microbe, parasite or virus in culture; type: cell-based; conditions: Vero; read-out: Concentration required to give 80% plaque reduction
[2] = system: YF; experiment: microbe, parasite or virus in culture; type: cell-based; conditions: MK2, read-out: Concentration required to give 80% plaque reduction
[3] = system: DEN-2; experiment: microbe, parasite or virus in culture; conditions: SW13, read-out: Concentration required to give 80% plaque reduction
[4] = system: RVFV; experiment: microbe, parasite or virus in culture; type: cell-based; conditions: Rift Valley fever virus, SW13, read-out: Concentration required to give 80% plaque reduction
[5] = system: PICH; experiment: microbe, parasite or virus in culture; conditions: Vero, read-out: Concentration required to give 80% plaque reduction
[6] = system: Trypanosoma rhodesiense; experiment: In vitro antitrypanosomal screening, semi-automated microtest system; type: cell-based
[7] = system: Plasmodium falciparum; experiment: In vitro antimalarial screening, semi-automated microdilution technique; type: cell-based; conditions: column head in nanograms/ml, footnote in μg/ml, read-out: ED50 (out-of-range entries)
From the text: Desjardins, R. E.; Canfield, C. J.; Haynes, J. D.; and Chulay, J. D.: Quantitative Assessment of Antimalarial Activity In Vitro by A Semi-automated Microdilution Technique. Antimicrob. Ag. & Chemother., 16:710-718, 1979.

[8] = system: malaria; conditions: A Survey of Antimalarial Drugs, 1941-1945; cited from earlier work
[9] = 3H-Thymidine, read-out: ED50, 3H-Thymidine (out-of-range entries)

NC(=O)c1ncn([C@@H]2O[C@H](CO)[C@@H](O)[C@H]2O)n1 [Ribavirin]
EC80 [1]: 100 µg/mL (≈ 409 µM)
EC80 [2]: 50 µg/mL (≈ 205 µM)
EC80 [3]: 100 µg/mL (≈ 409 µM)
EC80 [4]: 25 µg/mL (≈ 102 µM)
EC80 [5]: 100 µg/mL (≈ 409 µM)

Nc1ccc(S(=O)(=O)Nc2ncccn2)cc1 [aluminum sulfadiazine]
IC50 [6, 9]: > 12.5 µg/mL

Nc1cccc(S(=O)(=O)Nc2ncc(Cl)cn2)c1 [metachloridine, 5-chloro-2-metanilamidopyrimidine]
IC50 [7]: > 12.5 µg/mL
IC50 [6, 9]: > 12.5 µg/mL
IC50 ([6]; 14C-Leucine, read-out: ED50, 14C-Leucine (out-of-range entries)): > 12.5 µg/mL
antimalarial activity in screening tests [8]: sufficiently active in screening tests for antimalarial effects

Nc1ccc(S(=O)(=O)Nc2ncccn2)cc1 [sulfadiazine, 2-sulfanilaminidopyrimidine]
IC50 [7]: > 12.5 µg/mL

COc1cnc(NS(=O)(=O)c2ccc(N)cc2)nc1 [sulfameter]
IC50 [6, 9]: > 12.5 µg/mL
